Literature values in patent US8425924B2, “Propylene compositions containing a pyrethroid and products made therefrom” (ExxonMobil Chemical Patents Inc., priority 2009, dated 2013).

Settings: thermal stability of the pyrethroid

Row | Compound | stable up to a temperature
1 | C=CCC1=C(C)C(OC(=O)[C@@H]2[C@@H](C=C(C)C)C2(C)C)CC1=O (some centres unmarked) [allethrin I] | more than 400 °C
2 | CC1(C)[C@H](C(=O)O[C@H](C#N)c2cccc(Oc3ccccc3)c2)[C@@H]1C=C(Br)Br [deltamethrin] | up to 320 °C
